The source of these data is ChEMBL document CHEMBL4818987, “Recent advances of podophyllotoxin/epipodophyllotoxin hybrids in anticancer activity, mode of action, and structure-activity relationship: An update (2010-2020)” (Eur J Med Chem, 2020).

A short description of assay [1]: Resistance index, ratio of IC50 for human K562/ADR cells to IC50 for human K562 cells. It counts as functional.
Assay [2] concerns K562. As to the kind of experiment: Potency index, ratio of doxorubicin IC50 to compound IC50 for human K562 cells. It counts as functional.
In assay [3] the test system is K562. As to the kind of experiment: Cytotoxicity against human K562 cells incubated for 72 hrs by CCK8 assay. Format: functional, cell-based. As to conditions: K562, 72 h.
In assay [4] the test system is K562/Adr. As to the kind of experiment: Cytotoxicity against human K562/ADR cells incubated for 72 hrs by CCK8 assay. Format: functional, cell-based. A general note: Formazan colour is commonly taken as a measure of viable cells.
Assay [5] deals with K562/Adr. As to the kind of experiment: Potency index, ratio of doxorubicin IC50 to compound IC50 for human K562/ADR cells. Format: functional.
In assay [6] the test system is L02. Briefly: Cytotoxicity against human HL7702 cells incubated for 48 hrs by MTT assay. Format: cell-based. Conditions: L02, 48 h.
The subject of assay [7] is A549. Briefly: Antiproliferative activity against human A549 cells incubated for 48 hrs by MTT assay. It counts as functional, cell-based. As to conditions: A549, 48 h.
Assay [8] concerns HepG2. As to the kind of experiment: Antiproliferative activity against human HepG2 cells incubated for 48 hrs by MTT assay. It counts as functional, cell-based. Conditions: HepG2, 48 h.
In assay [9] the test system is BGC-823. Briefly: Antiproliferative activity against human BGC-823 cells incubated for 48 hrs by MTT assay. Format: functional, cell-based. As to conditions: BGC-823, 48 h.
In assay [10] the test system is K562/Adr. As to the kind of experiment: Antiproliferative activity against human K562/ADR cells incubated for 72 hrs by CCK8 assay. It counts as functional, cell-based.
Assay [11] deals with K562/Adr. As to the kind of experiment: Potency index, ratio of etoposide IC50 to test compound IC50 for antiproliferative activity against human K562/ADM cells. Format: functional.
Assay [12] relates to K562. Briefly: Potency index, ratio of etoposide IC50 to test compound IC50 for antiproliferative activity against human K562 cells. It counts as functional.
Assay [13] has as its system K562. Briefly: Antiproliferative activity against human K562 cells incubated for 72 hrs by CCK8 assay. Conditions: K562, 72 h. It counts as functional, cell-based.
The test system of assay [14] is HeLa. Briefly: Antiproliferative activity against human HeLa cells incubated for 72 hrs by MTT assay. It counts as functional, cell-based.
The subject of assay [15] is A549. Briefly: Antiproliferative activity against human A549 cells incubated for 72 hrs by MTT assay. Format: functional, cell-based. Conditions: A549, 72 h.
Assay [16] relates to B16-F10. Briefly: Antiproliferative activity against mouse B16/F10 cells incubated for 72 hrs by MTT assay. It counts as functional, cell-based. As to conditions: B16-F10, 72 h.
The subject of assay [17] is SK-OV-3. As to the kind of experiment: Antiproliferative activity against human SK-OV-3 cells incubated for 72 hrs by MTT assay. It counts as functional, cell-based. Conditions: SK-OV-3, 72 h.
Assay [18] has as its system CT26. As to the kind of experiment: Antiproliferative activity against […] cells incubated for 72 hrs by MTT assay. It counts as functional, cell-based. As to conditions: Mus musculus, CT26, 72 h.
The subject of assay [19] is MCF7. As to the kind of experiment: Antiproliferative activity against human MCF7 cells incubated for 72 hrs by MTT assay. As to conditions: MCF7, 72 h. It counts as functional, cell-based.
The subject of assay [20] is HepG2. Briefly: Antiproliferative activity against human HepG2 cells incubated for 72 hrs by MTT assay. As to conditions: HepG2, 72 h. It counts as functional, cell-based.
For assay [21], the system named is MCF7. Briefly: Antiproliferative activity against human MCF7 cells incubated for 24 hrs by MTT assay. It counts as functional, cell-based. Conditions: MCF7, 24 h.
The subject of assay [22] is L02. As to the kind of experiment: Cytotoxicity against human L02 cells. It counts as cell-based.
The test system of assay [23] is HeLa. Briefly: Antiproliferative activity against human HeLa cells incubated for 24 hrs by MTT assay. It counts as functional, cell-based.
In assay [24] the test system is HepG2. Briefly: Antiproliferative activity against human HepG2 cells incubated for 24 hrs by MTT assay. As to conditions: HepG2, 24 h. Format: functional, cell-based.
Assay [25] has as its system Calu-1. As to the kind of experiment: Antiproliferative activity against human Calu-1 cells incubated for 24 hrs by MTT assay. As to conditions: Calu-1, 24 h. Format: functional, cell-based.
The test system of assay [26] is A549. As to the kind of experiment: Antiproliferative activity against human A549 cells incubated for 24 hrs by MTT assay. As to conditions: A549, 24 h. It counts as functional, cell-based.
For assay [27], the system named is Vero. Briefly: Cytotoxicity against African green monkey Vero cells. It counts as cell-based. Conditions: Chlorocebus sabaeus.
Assay [28] deals with K562/A02. Briefly: Cytotoxicity against human K562/A02 cells by SRB assay. It counts as functional, cell-based. In general terms: The SRB assay estimates cell density from bound dye.
The subject of assay [29] is K562/VCR. Briefly: Cytotoxicity against human K562/VCR cells incubated for 72 hrs by CCK8 assay. It counts as functional, cell-based.
The subject of assay [30] is MCF7. As to the kind of experiment: Antiproliferative activity against human MCF7 cells incubated for 48 hrs by MTT assay. As to conditions: MCF7, 48 h. Format: functional, cell-based.
In assay [31] the test system is Huh-7. As to the kind of experiment: Antiproliferative activity against human Huh7 cells incubated for 48 hrs by MTT assay. Format: functional, cell-based. Conditions: Huh-7, 48 h.
Assay [32] has as its system HeLa. As to the kind of experiment: Antiproliferative activity against human HeLa cells incubated for 48 hrs by MTT assay. It counts as functional, cell-based.

A word on the IC50: it is the concentration that inhibits the measured activity by half. With `C=CC(=O)O[C@@H]1c2cc3c(cc2[C@@H](c2cc(OC)c(OC)c(OC)c2)[C@H]2C(=O)OC[C@@H]21)OCO3`, the “Ratio IC50” value in [1] was found to be 1.1; in assay [2], 2.2; in [5] it was 2.2. The 50% inhibitory concentration (IC50) in assay [3] and in assay [4] was 11 nM throughout.
Turning to `COc1cc([C@@H]2c3cc4c(cc3[C@@H](Sc3ncnc5nc[nH]c35)[C@H]3COC(=O)[C@H]23)OCO4)cc(OC)c1OC`, the concentration for half-maximal inhibition (IC50) in assay [6], in [7], in assay [8] and in assay [9] was 300 nM each time.
Turning to `COc1cc([C@@H]2c3cc4c(cc3[C@H](OCC(=O)N3C(=O)C(=O)c5ccc(Cl)cc53)[C@H]3COC(=O)[C@H]23)OCO4)cc(OC)c1OC`, the concentration for half-maximal inhibition (IC50) in assay [10] and in assay [13] was 19 nM each time. For the same compound, the “Ratio IC50” value in assay [11] and in [12] was 8.8 in each case.
`COc1ccc(-c2coc3cc(OCCCC(=O)O[C@@H]4c5cc6c(cc5[C@@H](c5cc(OC)c(OC)c(OC)c5)[C@H]5C(=O)OC[C@@H]54)OCO6)ccc3c2=O)cc1`: the half-inhibitory concentration (IC50) in [14], in [15], in assay [16], in [17], in [18] and in assay [19] was 213 nM in each case. The same compound returned an IC50 in assay [20] of 213 nM.
Consider `COc1ccc(/C=C\c2cc(OC)c(OC)c(OC)c2)cc1O` [COMBRETASTATIN A4], for which the concentration for half-maximal inhibition (IC50) is 3450 nM in assay [21]; 4230 nM in [22]; 2780 nM in assay [23]; 3450 nM in [24]; 2780 nM in assay [25]; 2780 nM in assay [26]. In assay [27], the IC50 is 2560 nM.
As usually defined, the GI50 is the concentration giving 50% growth inhibition. In the case of `COc1cccc2c1C(=O)c1c(O)c3c(c(O)c1C2=O)C[C@@](O)(C(=O)CO)C[C@@H]3O[C@H]1C[C@H](N)[C@H](O)[C@H](C)O1` [DOXORUBICIN], halving of growth in assay [28] (GI50) required 14300 nM. For the same compound, the IC50 in [4] turned out to be 220 nM.
On to `COc1cc([C@@H]2c3cc4c(cc3[C@@H](OC(=O)/C=C/c3ccco3)[C@H]3COC(=O)[C@H]23)OCO4)cc(OC)c1OC`, for which the figures for the “Ratio IC50” value in assay [1], in assay [2] and in assay [5] were 1.1, 2.2 and 2.2, respectively. Besides, the IC50 in [3] and in assay [4] was 11 nM throughout.
Consider `COc1cc([C@@H]2c3cc4c(cc3[C@@H](Sc3nc(N)nc5nc[nH]c35)[C@H]3COC(=O)[C@H]23)OCO4)cc(OC)c1OC`, for which the half-maximal inhibitory concentration (IC50) in assay [6], in [7], in [8] and in assay [9] was 300 nM in each case.
As for `COc1cc([C@@H]2c3cc4c(cc3[C@H](OCC(=O)N3C(=O)C(=O)c5c(Br)cccc53)[C@H]3COC(=O)[C@H]23)OCO4)cc(OC)c1OC`, the half-maximal inhibitory concentration (IC50) in assay [10] and in assay [13] was 19 nM each time. Moreover, the “Ratio IC50” value in assay [11] and in assay [12] was 8.8 each time.
Consider `COc1cc([C@@H]2c3cc4c(cc3[C@@H](OC(=O)/C=C/c3ccc([N+](=O)[O-])cc3)[C@H]3COC(=O)[C@H]23)OCO4)cc(OC)c1OC`, for which the “Ratio IC50” value in assay [1] came out at 1.1; in assay [2] it was 2.2; in assay [5], 2.2. Further, the half-inhibitory concentration (IC50) in assay [3] and in assay [4] was 11 nM throughout.
In the case of `COc1cc([C@@H]2c3cc4c(cc3[C@H](OC(=O)c3ccc5cc[nH]c5c3)[C@H]3COC(=O)[C@H]23)OCO4)cc(OC)c1OC`, the IC50 in [29] and in assay [3] was 81 nM each time.
With `COc1ccc(-c2coc3cc(OCC(=O)O[C@@H]4c5cc6c(cc5[C@@H](c5cc(OC)c(OC)c(OC)c5)[C@H]5C(=O)OC[C@@H]54)OCO6)ccc3c2=O)cc1`, the IC50 in assay [14], in [15], in [16], in [17], in assay [18] and in assay [19] was 213 nM in each case. This compound yielded a 50% inhibitory concentration (IC50) in assay [20] of 213 nM.
As for `COc1cc([C@@H]2c3cc4c(cc3[C@@H](Nc3ncccc3C)[C@H]3COC(=O)[C@H]23)OCO4)cc(OC)c1O`, the IC50 in [7], in assay [30], in assay [31], in assay [32] and in assay [9] was 60 nM each time.
